This is an account of results in patent publication EP1972333A1, “Stabilised aqueous solutions of ergolin compounds” (Axxonis Pharma AG, priority 2007, dated 2008).

The conditions of data set [1]: oral, daily; 17th Report of the Joint FAO/WHO Expert Committee on Food Additives, 1974; cited from earlier work.
A short description of data set [2]: Solubility of free ergoline compounds in water / phosphate-buffered solution. It counts as physicochemical. Conditions: for Löslichkeit in Wasser: compared with Lisurid; for solubility: free compound, read-out: Löslichkeit. The procedure: Für strukturverwandte Wirkstoffe, welche auf derselben Grundstruktur basieren, können ähnliche physikalischchemische Aktivitäten in vitro, in vivo sowie in klinischen Studien erwartet werden. Die Lisuridderivate Tergurid und Protergurid weisen Alkylsubstituenten am Stickstoff (N6) der Grundstruktur sowie eine Einfachbindung zwischen den Positionen 9 und 10 auf. […] Die Löslichkeit des freien Protergurid beträgt beispielsweise 2.6 mg/100 mL in einer phosphatgepufferten Lösung (pH 7.4). Die Löslichkeit des freien Lisurids kann entsprechend auf 2.2 mg/100 mL abgeschätzt werden, wobei dieser Wert aus den Löslichkeitsdaten der jeweiligen Wirkstoffe/Wirkstoffsalze kalkuliert wurde (Zimmermann I (1983) International Journal of Pharmaceutics 13: 57-65).

The nature of data set [3]: Solubility improvement by cosolvent. It counts as physicochemical. Conditions: Propylenglykol as low-dosed additive (weniger als 10%).
For data set [4] the following is noted: for Mittlere Fläche (Lisuridpeakfläche zur totalen Peakfläche des Chromatogramms): 9% Propylenglykol, no buffer, 2 mg/3 mL.
Procedure: Die Wirkstoffkonzentration wurde auf 2 mg pro 3 mL eingestellt. Es wurde kein Puffersystem hinzugegeben. Das weitere Vorgehen umfasste das Einwiegen von 33.3 mg des Wirkstoffs in einen skalierten 50 mL Kolben, anschließende Zugabe des Propylenglykols (4.5g) sowie die Beigabe von 40 mL Wasser. Der Kolben wurde für mehrere Minuten geschüttelt und anschließend Ultraschall ausgesetzt, bis der Wirkstoff vollständig gelöst war. Der Kolben wurde auf Raumtemperatur abgekühlt und bis zur Markierung mit bidestilliertem Wasser aufgefüllt. Abschließend wurde zur Gewährleistung der Homogenität für eine weitere Minute geschüttelt. Die Lösung wurde in durchsichtige Glasampullen von 1 ml Volumen abgefüllt. Diese wurden luftdicht verschlossen und zum Lichtschutz mit Aluminiumfolie umwickelt. Die Ampullen wurden jeweils bei 6 bis 8°C, 25°C und 40°C aufbewahrt.
Data set [5] in a line: Stability of Lisuridhydrogenmaleat in citrate-buffered aqueous solutions (RP-HPLC, UV detection). Conditions: citrate buffer; for Färbung / degraded at 4320 h: no cosolvent; for Mittlere Fläche (Lisuridpeakfläche zur totalen Peakfläche des Chromatogramms): t 0 d; for degraded at 4320 h: 180 Tage, protected from light.
The conditions of data set [6]: 60°C, one week, in the dark, 10080 min.
Procedure: Als Additive wurden Propylenglykol und Cremophor ELP in Konzentrationen zwischen 1.00 und 10.00% eingesetzt. […] Die Lösungen wurden im Dunkeln in Glasbehältern bei 60°C für eine Woche aufbewahrt.

In brackets after ≈: the same amount, converted by molar mass. Like-named read-outs stand apart in the source and are kept apart here.

As for `CC(O)CO` (stereo not drawn) [Propylenglykol, 1,2-Propandiol (Propylenglykol)], in data set [1], the “geschätzte Menge, welche als tägliche orale Dosis akzeptabel ist” value is 25 mg/kg kg.

For `CCN(CC)C(=O)N[C@H]1C[C@@H]2c3cccc4[nH]cc(c34)C[C@H]2N(C)C1` [Tergurid], the “Löslichkeit in Wasser” value in data set [2] is “vergleichbare Löslichkeit in Wasser wie Lisurid”.

For `CCCN1C[C@@H](NC(=O)N(CC)CC)C[C@@H]2c3cccc4[nH]cc(c34)C[C@H]21` [Protergurid], the “Löslichkeit in Wasser” value in data set [2] is “vergleichbare Löslichkeit in Wasser wie Lisurid”. The solubility in data set [2] (phosphate-buffered solution, phosphatgepufferte Lösung (pH 7.4)) turned out to be 26 µg/mL (≈ 70.6 µM).

Turning to `CCN(CC)C(=O)N[C@H]1C=C2c3cccc4[nH]cc(c34)C[C@H]2N(C)C1` [Lisurid], the solubility in data set [2] (estimated, calculated from solubility data of the drugs/drug salts (Zimmermann 1983)) is approximately 22 µg/mL.

The share remaining is the share of the starting amount still present when the sample was taken. Read a low share remaining as a greater loss. As for `CCN(CC)C(=O)N[C@H]1C=C2c3cccc4[nH]cc(c34)C[C@H]2N(C)C1` [Lisuridhydrogenmaleat], the “Löslichkeit des Wirkstoffs” value in data set [3] is reported as “verbesserten Löslichkeit”. The same compound came in with a Wirkstoff zersetzt in data set [4] (40°C, 180 Tage, 9% Propylenglykol (cosolvent)) of approximately 10%. The “Mittlere Fläche (Lisuridpeakfläche zur totalen Peakfläche des Chromatogramms)” value (shortened to “Mittlere Fläche”) in data set [4] (Erhöhte Temperatur (40°C), t 0 d) turned out to be 99.80 Prozent; in data set [4] (Erhöhte Temperatur (40°C), t 7 d) it was 99.33 Prozent; in data set [4] (Erhöhte Temperatur (40°C), t 30 d), 97.59 Prozent; in data set [4] (Erhöhte Temperatur (40°C), t 90 d), 94.06 Prozent; in data set [4] (Erhöhte Temperatur (40°C), t 180 d), 89.76 Prozent; in data set [4] (Kühlschrank (6-8°C), t 0 d), 99.80 Prozent. Further, the “Mittlere Fläche” value in data set [4] (Kühlschrank (6-8°C), t 30 d) was 99.67 Prozent; in data set [4] (Kühlschrank (6-8°C), t 90 d) it was 99.52 Prozent; in data set [4] (Raumtemperatur (25°C), t 0 d), 99.80 Prozent; in data set [4] (Raumtemperatur (25°C), t 30 d), 99.46 Prozent; in data set [4] (Raumtemperatur (25°C), t 90 d) it was 99.15 Prozent; in data set [4] (Raumtemperatur (25°C), t 180 d), 98.35 Prozent. In addition, the “Mittlere Fläche” value in data set [5] (Erhöhte Temperatur (40°C), pH 3.5, 2 mg/3 mL) was 99,87 Prozent; in data set [5] (Erhöhte Temperatur (40°C), pH 4.5, 2 mg/3 mL), 99,79 Prozent; in data set [5] (Erhöhte Temperatur (40°C), pH 5.1, 2 mg/3 mL), 100,00 Prozent; in data set [5] (Kühlschrank (6-8°C), pH 3.5, 2 mg/3 mL) it was 99,87 Prozent; in data set [5] (Kühlschrank (6-8°C), pH 4.5, 2 mg/3 mL), 99,79 Prozent; in data set [5] (Kühlschrank (6-8°C), pH 5.1, 2 mg/3 mL), 100,00 Prozent. The “Mittlere Fläche” value in data set [5] (Raumtemperatur (25°C), pH 3.5, 2 mg/3 mL) is on record as 99,87 Prozent; in data set [5] (Raumtemperatur (25°C), pH 4.5, 2 mg/3 mL), 99,79 Prozent; in data set [5] (Raumtemperatur (25°C), pH 5.1, 2 mg/3 mL) it was 100,00 Prozent. Besides, the Wirkstoff zerfallen in data set [4] (Kühlschrank (6-8°C), 180 Tage, protected from light, 9% Propylenglykol (cosolvent)) is recorded as approximately 0.4%; in data set [6] (1% Cremophor ELP), 14,3%; in data set [6] (10% Cremophor ELP), 21.3%. For the same compound, the Färbung entry is given as “signifikante gelbe Färbung” in data set [5] (40°C, after 30 Tagen) and “Braun” in data set [5] (40°C, after weiteren 60 Tagen (following the first 30)). Besides, the degraded at 4320 h was not above 30% in data set [5] (Wirkstoff zersetzt, 40°C); approximately 0.7% in data set [5] (Zersetzung, Kühlschrank (6-8°C)); 5% in data set [5] (pH 5.1, Zersetzung, Raumtemperatur (25°C), citrate buffer pH 5.1, 4.5, 3.5). The compound further gave an amount remaining at 720 h in data set [5] (pH 3.5, Mittlere Fläche (Lisuridpeakfläche zur totalen Peakfläche des Chromatogramms), Erhöhte Temperatur (40°C), pH 3.5, t 30 d, 2 mg/3 mL) of 90.4%. For the same compound, the amount remaining at 2160 h stood at 73.4% in data set [5] (pH 3.5, Mittlere Fläche (Lisuridpeakfläche zur totalen Peakfläche des Chromatogramms), Erhöhte Temperatur (40°C), pH 3.5, t 90 d, 2 mg/3 mL) and 90.4% in data set [5] (pH 4.5, Mittlere Fläche (Lisuridpeakfläche zur totalen Peakfläche des Chromatogramms), Erhöhte Temperatur (40°C), pH 4.5, t 90 d, 2 mg/3 mL). The fraction remaining at 4320 h worked out at 69.9% in data set [5] (pH 3.5, Mittlere Fläche (Lisuridpeakfläche zur totalen Peakfläche des Chromatogramms), Erhöhte Temperatur (40°C), pH 3.5, t 180 d, 2 mg/3 mL); 87.7% in data set [5] (pH 4.5, Mittlere Fläche (Lisuridpeakfläche zur totalen Peakfläche des Chromatogramms), Erhöhte Temperatur (40°C), pH 4.5, t 180 d, 2 mg/3 mL); 88% in data set [5] (pH 5.1, Mittlere Fläche (Lisuridpeakfläche zur totalen Peakfläche des Chromatogramms), Erhöhte Temperatur (40°C), pH 5.1, t 180 d, 2 mg/3 mL).
